Reference: ChEMBL document CHEMBL5678818, “Discovery of potent SOS1 inhibitors that block RAS activation via disruption of the RAS-SOS1 interaction” (Proc Natl Acad Sci U S A, 2019)

Assays:
[1] = biological target: Receptor tyrosine-protein kinase erbB-2 (Homo sapiens) (UniProt P04626); test: Inhibition of ERBB2 (unknown origin) assessed as residual activity at 1000 nM by KINOMEscan analysis relative to control
[2] = biological target: MAP kinase-interacting serine/threonine-protein kinase 1 (Homo sapiens) (UniProt Q9BUB5); test: Inhibition of MKNK1 (unknown origin) assessed as residual activity at 1000 nM by KINOMEscan analysis relative to control
MAP kinase-interacting serine/threonine-protein kinase 1 (Homo sapiens), sequence (Q9BUB5 whole entry, looked up): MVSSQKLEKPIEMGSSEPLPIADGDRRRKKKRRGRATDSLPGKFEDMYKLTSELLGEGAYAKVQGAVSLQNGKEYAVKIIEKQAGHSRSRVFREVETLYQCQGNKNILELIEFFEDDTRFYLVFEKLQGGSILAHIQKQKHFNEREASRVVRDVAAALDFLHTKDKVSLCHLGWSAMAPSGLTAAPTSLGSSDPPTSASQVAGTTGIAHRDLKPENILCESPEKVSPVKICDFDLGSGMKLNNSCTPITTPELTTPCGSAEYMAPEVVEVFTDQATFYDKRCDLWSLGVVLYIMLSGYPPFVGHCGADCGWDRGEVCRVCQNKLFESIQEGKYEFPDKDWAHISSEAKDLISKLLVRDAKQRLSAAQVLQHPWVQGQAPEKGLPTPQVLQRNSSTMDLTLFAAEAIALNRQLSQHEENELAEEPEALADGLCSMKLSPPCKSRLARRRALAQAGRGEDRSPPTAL

[3] = biological target: Wee1-like protein kinase 2 (Homo sapiens) (UniProt P0C1S8); test: Inhibition of WEE2 (unknown origin) assessed as residual activity at 1000 nM by KINOMEscan analysis relative to control
Wee1-like protein kinase 2 (Homo sapiens), sequence (P0C1S8 whole entry, looked up): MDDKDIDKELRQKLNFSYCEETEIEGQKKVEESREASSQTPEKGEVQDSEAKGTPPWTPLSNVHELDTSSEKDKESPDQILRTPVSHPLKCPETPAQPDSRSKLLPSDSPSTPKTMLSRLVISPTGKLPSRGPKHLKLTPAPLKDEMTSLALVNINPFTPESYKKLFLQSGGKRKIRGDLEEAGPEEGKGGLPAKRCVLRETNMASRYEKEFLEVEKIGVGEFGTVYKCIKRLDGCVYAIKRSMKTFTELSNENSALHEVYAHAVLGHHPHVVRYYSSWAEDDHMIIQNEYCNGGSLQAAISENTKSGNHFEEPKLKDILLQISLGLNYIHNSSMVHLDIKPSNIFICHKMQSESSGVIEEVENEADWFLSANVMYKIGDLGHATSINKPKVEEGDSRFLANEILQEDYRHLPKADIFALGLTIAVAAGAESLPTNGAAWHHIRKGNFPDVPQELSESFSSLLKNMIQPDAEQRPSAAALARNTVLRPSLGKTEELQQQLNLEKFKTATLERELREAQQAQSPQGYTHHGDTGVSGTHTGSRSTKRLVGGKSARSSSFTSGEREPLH

[4] = biological target: Serine/threonine-protein kinase PLK1 (Homo sapiens) (UniProt P53350); test: Inhibition of PLK1 (unknown origin) assessed as residual activity at 1000 nM by KINOMEscan analysis relative to control
Serine/threonine-protein kinase PLK1 (Homo sapiens), sequence (P53350 whole entry, the tested form may be a part): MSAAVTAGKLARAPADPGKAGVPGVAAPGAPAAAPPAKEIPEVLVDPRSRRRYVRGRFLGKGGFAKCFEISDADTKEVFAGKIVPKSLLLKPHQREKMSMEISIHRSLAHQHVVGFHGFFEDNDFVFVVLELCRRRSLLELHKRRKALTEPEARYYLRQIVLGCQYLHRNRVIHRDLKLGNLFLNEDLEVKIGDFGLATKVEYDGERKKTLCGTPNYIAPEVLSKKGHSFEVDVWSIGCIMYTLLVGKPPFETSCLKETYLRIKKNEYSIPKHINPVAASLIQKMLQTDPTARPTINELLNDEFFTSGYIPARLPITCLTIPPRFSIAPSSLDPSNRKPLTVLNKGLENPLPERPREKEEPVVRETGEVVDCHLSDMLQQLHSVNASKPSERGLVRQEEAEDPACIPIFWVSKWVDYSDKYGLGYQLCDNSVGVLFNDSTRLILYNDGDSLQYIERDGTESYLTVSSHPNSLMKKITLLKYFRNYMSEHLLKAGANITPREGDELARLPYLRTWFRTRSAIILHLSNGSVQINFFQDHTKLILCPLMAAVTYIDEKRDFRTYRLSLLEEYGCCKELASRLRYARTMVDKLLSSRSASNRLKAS

[5] = biological target: T1, Tyrosine-protein kinase JAK3 (Homo sapiens) (UniProt P52333); test: Inhibition of JAK3 JH1 catalytic domain (unknown origin) assessed as residual activity at 1000 nM by KINOMEscan analysis relative to control
T1 sequence (whole entry): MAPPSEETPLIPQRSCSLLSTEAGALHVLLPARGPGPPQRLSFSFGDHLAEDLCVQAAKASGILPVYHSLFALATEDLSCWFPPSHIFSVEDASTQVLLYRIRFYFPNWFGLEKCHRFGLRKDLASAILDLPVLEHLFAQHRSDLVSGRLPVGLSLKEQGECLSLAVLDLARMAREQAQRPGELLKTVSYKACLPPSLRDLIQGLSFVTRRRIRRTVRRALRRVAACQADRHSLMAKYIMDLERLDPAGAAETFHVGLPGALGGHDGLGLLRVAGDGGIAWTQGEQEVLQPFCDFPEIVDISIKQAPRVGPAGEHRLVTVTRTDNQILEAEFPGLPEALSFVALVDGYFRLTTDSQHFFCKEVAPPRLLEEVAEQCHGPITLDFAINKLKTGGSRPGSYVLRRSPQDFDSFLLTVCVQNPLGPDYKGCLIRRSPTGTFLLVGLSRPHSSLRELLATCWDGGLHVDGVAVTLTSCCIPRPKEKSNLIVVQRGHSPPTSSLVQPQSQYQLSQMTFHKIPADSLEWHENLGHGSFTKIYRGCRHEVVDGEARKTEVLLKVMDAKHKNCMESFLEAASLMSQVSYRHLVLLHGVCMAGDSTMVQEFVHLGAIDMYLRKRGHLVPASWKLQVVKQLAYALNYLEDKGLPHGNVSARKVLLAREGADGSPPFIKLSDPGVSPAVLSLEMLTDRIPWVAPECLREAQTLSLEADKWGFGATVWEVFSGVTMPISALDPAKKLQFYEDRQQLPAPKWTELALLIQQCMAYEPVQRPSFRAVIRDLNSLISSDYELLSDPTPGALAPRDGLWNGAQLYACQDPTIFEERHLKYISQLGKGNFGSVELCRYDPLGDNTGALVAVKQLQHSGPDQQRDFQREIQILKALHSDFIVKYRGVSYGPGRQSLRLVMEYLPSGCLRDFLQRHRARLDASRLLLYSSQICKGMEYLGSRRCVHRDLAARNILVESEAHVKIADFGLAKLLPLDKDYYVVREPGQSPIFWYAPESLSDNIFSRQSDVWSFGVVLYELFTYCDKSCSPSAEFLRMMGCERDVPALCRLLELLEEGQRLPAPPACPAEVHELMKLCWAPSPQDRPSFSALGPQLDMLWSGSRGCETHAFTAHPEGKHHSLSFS

[6] = biological target: Homeodomain-interacting protein kinase 1 (Homo sapiens) (UniProt Q86Z02); test: Inhibition of HIPK1 (unknown origin) assessed as residual activity at 1000 nM by KINOMEscan analysis relative to control
[7] = biological target: Tyrosine-protein kinase BTK (Homo sapiens) (UniProt Q06187); test: Inhibition of BTK (unknown origin) assessed as residual activity at 1000 nM by KINOMEscan analysis relative to control
Tyrosine-protein kinase BTK (Homo sapiens), sequence (Q06187 whole entry): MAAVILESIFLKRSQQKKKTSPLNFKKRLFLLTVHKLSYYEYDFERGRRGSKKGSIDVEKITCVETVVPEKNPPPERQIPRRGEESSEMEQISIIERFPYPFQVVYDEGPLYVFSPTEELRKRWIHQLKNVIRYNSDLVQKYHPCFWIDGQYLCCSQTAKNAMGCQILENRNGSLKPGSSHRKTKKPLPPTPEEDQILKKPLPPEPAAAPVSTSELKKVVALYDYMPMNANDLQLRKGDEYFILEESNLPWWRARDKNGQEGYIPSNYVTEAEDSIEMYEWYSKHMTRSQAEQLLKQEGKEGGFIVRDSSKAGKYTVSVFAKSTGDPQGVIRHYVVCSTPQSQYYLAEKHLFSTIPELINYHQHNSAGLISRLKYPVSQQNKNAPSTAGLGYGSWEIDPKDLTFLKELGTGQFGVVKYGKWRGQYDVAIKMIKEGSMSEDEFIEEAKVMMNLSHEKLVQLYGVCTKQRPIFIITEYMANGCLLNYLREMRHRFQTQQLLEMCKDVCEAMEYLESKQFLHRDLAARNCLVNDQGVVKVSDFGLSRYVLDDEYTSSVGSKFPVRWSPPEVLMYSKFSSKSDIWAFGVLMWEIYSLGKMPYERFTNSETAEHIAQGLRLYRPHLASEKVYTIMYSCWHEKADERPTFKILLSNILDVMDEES

[8] = biological target: T2, Rhodopsin kinase GRK1 (Homo sapiens) (UniProt Q15835); test: Inhibition of GRK1 (unknown origin) assessed as residual activity at 1000 nM by KINOMEscan analysis relative to control
T2 sequence (whole entry): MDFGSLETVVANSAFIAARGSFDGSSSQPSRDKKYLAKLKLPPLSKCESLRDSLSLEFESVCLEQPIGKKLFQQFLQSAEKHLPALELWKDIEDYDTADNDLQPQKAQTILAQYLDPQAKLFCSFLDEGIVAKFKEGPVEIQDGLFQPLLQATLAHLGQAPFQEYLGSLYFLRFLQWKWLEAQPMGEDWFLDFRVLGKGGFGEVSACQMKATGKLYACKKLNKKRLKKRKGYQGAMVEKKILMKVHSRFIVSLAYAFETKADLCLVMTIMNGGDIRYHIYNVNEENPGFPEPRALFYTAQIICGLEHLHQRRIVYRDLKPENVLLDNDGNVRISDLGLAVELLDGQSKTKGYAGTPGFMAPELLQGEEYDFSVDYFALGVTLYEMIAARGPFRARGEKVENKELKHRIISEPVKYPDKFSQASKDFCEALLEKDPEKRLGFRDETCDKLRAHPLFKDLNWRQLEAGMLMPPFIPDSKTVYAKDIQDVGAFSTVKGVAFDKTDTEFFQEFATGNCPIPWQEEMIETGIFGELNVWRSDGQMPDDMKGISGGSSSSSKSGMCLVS

[9] = biological target: MAP kinase-activated protein kinase 2 (Homo sapiens) (UniProt P49137); test: Inhibition of MAPKAPK2 (unknown origin) assessed as residual activity at 1000 nM by KINOMEscan analysis relative to control
MAP kinase-activated protein kinase 2 (Homo sapiens), sequence (P49137 whole entry, looked up): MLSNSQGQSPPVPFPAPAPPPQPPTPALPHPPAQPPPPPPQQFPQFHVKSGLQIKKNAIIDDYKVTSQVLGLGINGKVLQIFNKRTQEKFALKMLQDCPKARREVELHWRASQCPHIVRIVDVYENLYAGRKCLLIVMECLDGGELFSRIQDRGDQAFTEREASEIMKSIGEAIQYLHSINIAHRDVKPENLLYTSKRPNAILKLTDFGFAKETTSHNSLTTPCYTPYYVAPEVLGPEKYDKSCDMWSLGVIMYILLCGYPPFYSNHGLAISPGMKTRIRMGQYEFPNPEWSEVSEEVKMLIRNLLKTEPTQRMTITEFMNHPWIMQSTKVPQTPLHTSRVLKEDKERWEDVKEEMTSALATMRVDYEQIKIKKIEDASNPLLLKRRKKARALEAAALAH

[10] = tested on: Tyrosine-protein kinase ABL1 (Homo sapiens), P00519 [Q252H]; test: Inhibition of phosphorylated ABL1 Q252H mutant (unknown origin) assessed as residual activity at 1000 nM by KINOMEscan analysis relative to control
[11] = biological target: Vascular endothelial growth factor receptor 3 (Homo sapiens) (UniProt P35916); test: Inhibition of FLT4 (unknown origin) assessed as residual activity at 1000 nM by KINOMEscan analysis relative to control
[12] = tested on: Receptor-type tyrosine-protein kinase FLT3 (Homo sapiens), P36888 [K663Q]; test: Inhibition of FLT3 K663Q mutant (unknown origin) assessed as residual activity at 1000 nM by KINOMEscan analysis relative to control

Receptor tyrosine-protein kinase erbB-2 (Homo sapiens), sequence (P04626 whole entry): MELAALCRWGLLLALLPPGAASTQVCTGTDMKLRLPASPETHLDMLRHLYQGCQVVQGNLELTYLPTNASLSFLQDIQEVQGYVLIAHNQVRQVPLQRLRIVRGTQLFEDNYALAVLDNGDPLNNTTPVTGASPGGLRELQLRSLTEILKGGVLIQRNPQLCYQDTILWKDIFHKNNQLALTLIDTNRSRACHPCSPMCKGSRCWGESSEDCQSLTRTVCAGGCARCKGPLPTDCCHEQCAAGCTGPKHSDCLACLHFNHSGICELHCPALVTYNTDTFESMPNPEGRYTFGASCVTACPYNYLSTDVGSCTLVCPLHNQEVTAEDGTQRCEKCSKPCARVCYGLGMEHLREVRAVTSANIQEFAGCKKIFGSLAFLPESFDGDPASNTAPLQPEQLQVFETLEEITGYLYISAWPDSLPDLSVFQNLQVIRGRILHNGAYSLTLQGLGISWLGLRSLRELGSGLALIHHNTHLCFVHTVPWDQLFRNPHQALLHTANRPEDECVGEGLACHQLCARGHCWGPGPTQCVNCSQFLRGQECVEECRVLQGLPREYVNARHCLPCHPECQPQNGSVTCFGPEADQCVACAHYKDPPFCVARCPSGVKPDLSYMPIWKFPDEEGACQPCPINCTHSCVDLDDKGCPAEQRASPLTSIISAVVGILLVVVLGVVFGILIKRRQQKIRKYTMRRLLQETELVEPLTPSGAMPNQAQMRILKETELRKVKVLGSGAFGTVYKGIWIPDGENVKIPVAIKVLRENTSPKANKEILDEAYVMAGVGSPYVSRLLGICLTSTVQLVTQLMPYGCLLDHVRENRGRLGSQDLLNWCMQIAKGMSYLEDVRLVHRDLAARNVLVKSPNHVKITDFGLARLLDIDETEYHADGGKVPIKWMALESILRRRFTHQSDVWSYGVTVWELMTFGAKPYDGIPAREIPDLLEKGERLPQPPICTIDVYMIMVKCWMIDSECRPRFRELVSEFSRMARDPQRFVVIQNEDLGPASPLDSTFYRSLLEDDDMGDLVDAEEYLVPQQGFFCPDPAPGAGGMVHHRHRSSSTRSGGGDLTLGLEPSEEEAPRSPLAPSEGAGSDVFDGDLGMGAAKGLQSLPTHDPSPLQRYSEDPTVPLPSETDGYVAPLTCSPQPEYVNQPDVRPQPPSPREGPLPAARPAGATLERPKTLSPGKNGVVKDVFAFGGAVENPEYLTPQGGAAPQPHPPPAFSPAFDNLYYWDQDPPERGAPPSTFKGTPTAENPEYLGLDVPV

Row | SMILES | Activity [1] | Activity [2] | Activity [3] | Activity [4] | Activity [5] | Activity [6] | Activity [7] | Activity [8] | Activity [9] | Activity [10] | Activity [11] | Activity [12]
1 | COc1cc2nc(C)nc(N[C@H](C)c3cccc(-c4cn[nH]c4)c3)c2cc1OC | 76% | 100% | 65% | 100% | 100% | 67% | 100% | 55% | 99% | 95% | 90% | 90%
2 | COc1cc2ncnc(N[C@H](C)c3cccc4ccccc34)c2cc1OC | 26% | 56% | 100% | 92% | 81% | 89% | 97% | 94% | 100% | 92% | 100% | 96%
